These results are taken from article PMC7765388, “Synthesis and In Vitro Antiprotozoan Evaluation of 4-/8-Aminoquinoline-based Lactams and Tetrazoles” (Molecules, 2020).

Read-outs that look alike come from different tables or passages of the source.

One data set has as its system P. falciparum K1 strain. Nature of the data set: In vitro antiplasmodium activity, 3H-hypoxanthine incorporation assay. The class given is cell-based, Plasmodium falciparum. The settings on record: for IC50: read-out: P. falciparum K1 IC50; for Selectivity Indices (SI) [(IC50 L6 Cell Line)/(IC50 K1 strain)]: L6 vs K1. The protocol: (§1) Antiplasmodial activity on the K1 strain, antitrypanosomal activity on T. b. brucei rhodesiense STIB900 and cytotoxicity on the L6 mammalian cell-line were all carried out at the Swiss Tropical and Public Health Institute (STPH), Switzerland as follows:
In vitro activity against erythrocytic stages of P. falciparum was determined using a ^3H-hypoxanthine incorporation assay, using the chloroquine and pyrimethamine-resistant K1 strain that originates from Thailand and the standard drug chloroquine (Sigma C6628). Compounds were dissolved in DMSO at 10 mg/mL and added to parasite cultures incubated in RPMI 1640 medium without hypoxanthine, supplemented with HEPES (5.94 g/L), NaHCO3 (2.1 g/L), neomycin (100 U/mL), Albumax^R (5 g/L) and washed human red cells A^+ at 2.5% hematocrit (0.3% parasitemia). Serial drug dilutions of eleven three-fold dilution steps covering a range from 100 to 0.002 μg/mL were prepared. The 96-well plates were incubated in a humidified atmosphere at 37 °C; 4% CO2, 3% O2, 93% N2. After 48 h, 50 μL of ^3H-hypoxanthine (= 0.5 μCi) was added to each well of the plate. The test compounds were tested in triplicate ad parasite growth compared to control or blank well. The plates were incubated for a further 24 h under the same conditions. The plates were then harvested with a Betaplate™ cell harvester (Wallac, Zurich, Switzerland), and the red blood cells transferred onto a glass fiber filter then washed with distilled water. The dried filters were inserted into a plastic foil with 10 mL of scintillation fluid and counted in a Betaplate™ liquid scintillation counter (Wallac, Zurich, Switzerland). IC50 values were calculated from sigmoidal inhibition curves by linear regression using Microsoft Excel.

Data set [1] concerns Trypanosoma brucei rhodesiense STIB900. The experiment in a line: In vitro antitrypanosomal activity, alamarBlue assay. The settings on record: STIB900 bloodstream forms, 70 h + 2-4 h alamarBlue, read-out: T. b. brucie T. b. rhod IC50. The class given is cell-based. The method, then: as §1
This stock was isolated in 1982 from a human patient in Tanzania and, after several mouse passages, was cloned and adapted to axenic culture conditions. Minimum essential medium (50 µL) supplemented with 25 mM HEPES, 1 g/L additional glucose, 1% MEM non-essential amino acids (100×), 0.2 mM 2-mercaptoethanol, 1 mM Na-pyruvate and 15% heat-inactivated horse serum was added to each well of a 96-well microtiter plate. Serial drug dilutions of eleven three-fold dilution steps covering a range from 100 to 0.002 μg/mL were prepared. Then, 4 × 10^3 bloodstream forms of T. b. rhodesiense STIB 900 in 50 µL was added to each well and the plate incubated at 37 °C under a 5% CO2 atmosphere for 70 h. 10 µL alamarBlue (resazurin, 12.5 mg in 100 mL double-distilled water) was then added to each well and incubation continued for a further 2–4 h. Then the plates were read with a Spectramax Gemini XS microplate fluorometer (Molecular Devices Cooperation, Sunnyvale, CA, USA) using an excitation wavelength of 536 nm and an emission wavelength of 588 nm. The test compounds were tested in triplicate, and their IC50 values were calculated by linear regression from the sigmoidal dose inhibition curves using Softmax Pro software (Molecular Devices Cooperation, Sunnyvale, CA, USA).

A short description of data set [2]: Aqueous kinetic solubility. In kind it is physicochemical. The protocol:
A 10 mM stock of the compound was diluted in DMSO to give standard solutions at 220 µM, 100 µM and 10 µM in a 96 well plate as described previously. The 10 mM stock was then spiked 1:50 in phosphate-buffered saline pH 7.0 to give a final DMSO concentration of 2%. Both the standard and sample solutions were plated in triplicate. After shaking for 2 h at 25 °C, the solutions were filtered and analyzed on an Agilent 1200 series HPLC with DAD detection. The solubility of the test compounds was determined by comparing the peak area of the sample solutions to that of the standard solutions.

A short description of data set [3]: In vitro cytotoxicity with L-6 cells, alamarBlue assay. In kind it is cell-based. The conditions noted are these: rat, L6 cells, 70 h + 2 h alamarBlue, read-out: Cytotoxicity L6 Cell Lines IC50. The method, then: as §1
Assays were performed in triplicate in 96-well microtiter plates, each well containing 100 μL of RPMI 1640 medium supplemented with 1% L-glutamine (200 mM) and 10% fetal bovine serum, and 4000 L-6 cells (a primary cell line derived from rat skeletal myoblasts). Serial drug dilutions of eleven three-fold dilution steps covering a range from 100 to 0.002 μg/mL were prepared. After 70 h of incubation, the plates were inspected under an inverted microscope to assure the growth of the controls and sterile conditions. 10 μL of alamarBlue was then added to each well, and the plates incubated for another 2 h. Then the plates were read with a Spectramax Gemini XS microplate fluorometer (Molecular Devices Cooperation, Sunnyvale, CA, USA) using an excitation wavelength of 536 nm and an emission wavelength of 588 nm. The IC50 values were calculated by linear regression from the sigmoidal dose inhibition curves using Softmax Pro software (Molecular Devices Cooperation, Sunnyvale, CA, USA).
Background: Resazurin is reduced to fluorescent resorufin, in cell work by metabolically active cells.

The mark [4] stands for this setting: multidrug-resistant (chloroquine and pyrimethamine-resistant) K1 strain, erythrocytic stages, 72 h.
Where [5] appears, read: Plasmodium falciparum, K1, 72 h.
Where [6] appears, read: L-6 cells (rat skeletal myoblasts).
The mark [7] stands for this setting: aqueous buffer, kinetic from dmso stock, phosphate-buffered saline pH 7.0, 2% DMSO, 2 h at 25 °C.
The mark [8] stands for this setting: Plasmodium falciparum, multidrug-resistant (chloroquine and pyrimethamine-resistant) K1 strain, erythrocytic stages, 72 h.

On to “1-[2-(7-Chloroquinolin-4-ylamino)ethyl]-3-methoxy-4-(4-methoxyphenyl)azetidin-2-one [Compound 4b]”, for which the IC50 came out at 0.62 µM in the data set on P. falciparum K1 strain (setting [4]) and 52.9 µM in data set [1].
On to “1-[2-(7-Chloroquinolin-4-ylamino)ethyl]-3-methoxy-4-p-tolylazetidin-2-one [Compound 4c]”, for which the results for the IC50 (with P. falciparum K1 strain (setting [4]); in data set [1]) were 0.58 µM and 52.5 µM, respectively.
Take “1-[2-(7-Chloroquinolin-4-ylamino)ethyl]-4-(4-chlorophenyl)-3-methoxyazetidin-2-one [Compound 4e]”: the solubility (kinetic) at 2 h in data set [2] (pH 7) was over 200 µM. Moreover, the half-maximal inhibitory concentration (IC50) with P. falciparum K1 strain (setting [4]) was found to be 0.3 µM; in data set [1], 7.01 µM.
As to `CCN(CC)CCCC(C)Nc1ccnc2cc(Cl)ccc12` (stereo not shown) [Chloroquine, reference compound], in the data set with P. falciparum K1 strain (setting [5]), the IC50 amounted to 0.22 µM.
With `COC1C(=O)N(CCNc2ccnc3cc(Cl)ccc23)C1c1ccccc1` (stereo not shown) [Compound 4a, 1-[2-(7-Chloroquinolin-4-ylamino)ethyl]-3-methoxy-4-phenylazetidin-2-one], in data set [3] (setting [6]), the concentration for half-maximal inhibition (IC50) at 72 h came out at 98.5 µM. In data set [2] (setting [7]), this compound yielded a solubility (kinetic) at 2 h of over 200 µM. Also, the “Selectivity Indices (SI) [(IC50 L6 Cell Line)/(IC50 K1 strain)]” value (“Selectivity Indices (SI)” below) with P. falciparum K1 strain was 211. For the same compound, the IC50 in the data set with P. falciparum K1 strain (setting [8]) turned out to be 0.47 µM; in data set [1] (Trypanosoma brucei), 53.2 µM.
For the compound `COC1C(=O)N(CCNc2ccnc3cc(Cl)ccc23)C1c1ccc(Cl)c(Cl)c1` (stereo not shown) [Compound 4d, 1-[2-(7-Chloroquinolin-4-ylamino)ethyl]-4-(3,4-dichlorophenyl)-3-methoxyazetidin-2-one], the 50% inhibitory concentration (IC50) at 72 h in data set [3] (setting [6]) turned out to be 8.54 µM. Also, the “Selectivity Indices (SI)” value in the data set with P. falciparum K1 strain is 43. Moreover, the IC50 with P. falciparum K1 strain (setting [8]) was 0.2 µM; in data set [1] (Trypanosoma brucei), 19 µM.
In the same order, the values of `COC1C(=O)N(CCCNc2ccnc3cc(Cl)ccc23)C1c1ccccc1` (stereo not shown) [Compound 4f, 1-[3-(7-Chloroquinolin-4-ylamino)propyl]-3-methoxy-4-phenylazetidin-2-one] are 14.4 µM, 25, 0.57 µM and 16.1 µM.
Regarding `COC1C(=O)N(CCCCNc2ccnc3cc(Cl)ccc23)C1c1ccccc1` (stereo not shown) [Compound 4g, 1-[4-(7-Chloroquinolin-4-ylamino)butyl]-3-methoxy-4-phenylazetidin-2-one], in data set [3] (setting [6]), the IC50 at 72 h came out at 2.87 µM. Moreover, in data set [2] (setting [7]), the kinetic solubility at 2 h was over 200 µM. The “Selectivity Indices (SI)” value in the data set on P. falciparum K1 strain was 9. The results for the IC50 (in the data set with P. falciparum K1 strain (setting [8]); in data set [1] (Trypanosoma brucei)) were 0.31 µM and 20 µM, respectively.
With `COc1cccc(C(NCCCC(C)Nc2cc(OC)cc3cccnc23)c2nnnn2C(C)(C)C)c1` (stereo not shown) [Compound 6b], the concentration for half-maximal inhibition (IC50) at 72 h in data set [3] (setting [6]) was determined as 75.5 µM. Also, the “Selectivity Indices (SI)” value in the data set on P. falciparum K1 strain is 38. Moreover, the half-maximal inhibitory concentration (IC50) came to 1.98 µM in the data set with P. falciparum K1 strain (setting [8]) and 14.2 µM in data set [1] (Trypanosoma brucei).
As for `COc1cc([C@@H]2c3cc4c(cc3[C@H](O)[C@H]3COC(=O)[C@H]23)OCO4)cc(OC)c1OC` [Podophyllotoxin, reference compound], the IC50 at 72 h in data set [3] was 0.0193 µM.
`COc1cc(NC(C)CCCN)c2ncccc2c1` (stereo not shown) [Primaquine, reference compound]: the IC50 in the data set on P. falciparum K1 strain (setting [5]) was found to be 0.64 µM.
Consider “N-{5-[(1-tert-butyl-1H-tetrazol-5-yl)(3,4-dichlorophenyl)methylamino]pentan-2-yl}-6-methoxyquinolin-8-amine [Compound 6d]”, for which the kinetic solubility at 2 h in data set [2] (pH 7) is under 5 µM. Also, the IC50 with P. falciparum K1 strain (setting [4]) was 1.31 µM; in data set [1], 18.3 µM.
In the same order, the values of “N-{5-[(1-tert-butyl-1H-tetrazol-5-yl)(4-chlorophenyl)methylamino]pentan-2-yl}-6-methoxyquinolin-8-amine [Compound 6e]” are under 15 µM, 1.8 µM and 21.4 µM.
Consider “N-{5-[(1-tert-butyl-1H-tetrazol-5-yl)(p-tolyl)methylamino]pentan-2-yl}-6-methoxyquinolin-8-amine [Compound 6c]”, for which, in data set [2] (pH 7), the solubility (kinetic) at 2 h is reported as under 5 µM. Moreover, the IC50 in the data set on P. falciparum K1 strain (setting [4]) worked out at 1.57 µM; in data set [1], 18.5 µM.
For “N-{5-[(1-tert-butyl-1H-tetrazol-5-yl)(phenyl)methylamino]pentan-2-yl}-6-methoxyquinolin-8-amine [Compound 6a]”, the figures for the IC50 (in the data set with P. falciparum K1 strain (setting [4]); in data set [1]) were 2.47 µM and 18.1 µM, respectively.

The IC50 is the concentration at which inhibition is half-maximal. A word on the kinetic solubility: it is the concentration staying in solution when a stock, usually in DMSO, is diluted into the medium.
